In patent publication US20070129334A1, “Orally Active Purine-Based Inhibitors of Heat Shock Protein 90” (CONFORMA THERAPEUTICS CORPORATION, priority 2001, published 2007):
Read-outs that look alike come from different tables or passages of the source. Values belong to the compound of their own block, whether it stands above or below them.

Assays:
[1] = tested on: HER-2 receptor (Hsp90 client) in MCF-7 cells; experiment: HER-2 degradation assay (MCF-7 cells, 16 h, phycoerythrin-labeled antibody and flow cytometry); assay type: cell-based, human
[2] = tested on: MCF-7 breast cancer cells; experiment: MTS cell growth inhibition assay; assay type: cell-based, human; conditions: MCF-7 cells, 5 days; SEM 9-21% of the mean
[3] = tested on: Hsp90 clients in N87 stomach cancer xenograft tumors; experiment: Pharmacodynamic effect in N87 xenograft model; assay type: in vivo, mice
Procedure: The pharmacodynamic effect of amine 126 was examined in a N87 xenograft model (FIG. 1b), N87 being a stomach cancer cell line expressing high HER-2 levels. Mice were administered 126.H3PO4 orally at two different regimens (2×100 or 2×200 mg/kg/day) for three days, and were sacrificed 24 h after the last dosing.

[4] = tested on: N87 xenograft model of human stomach cancer; conditions: oral 200 mg/kg/day, once daily, 5 days/week
[5] = Pharmacokinetics in Balb/C mice (IV 10 mg/kg, PO 100 mg/kg)
[6] = Solubility in simulated gastric fluid, simulated intestinal fluid and serum; assay type: physicochemical
[7] = mouse, in vivo, po, 100 mg/kg
[8] = in vivo; conditions: mouse, po, 100 mg/kg
[9] = tested on: MCF-7 xenograft tumors; conditions: cited from earlier work
[10] = Water solubility
[11] = oral 2×100 mg/kg/day for three days

SMILES: COc1ccc(I)c(Sc2nc3c(N)ncnc3n2CCCNC(C)C)c1.O=P(O)(O)O [Compound 126, 8-(2-Iodo-5-methoxy-phenylsulfanyl)-9-(3-isopropylamino-propyl)-9H-purin-6-ylamine H3PO4 salt]
IC50 ([1]; MCF-7 cells, 16 h, SEM 6-11% of the mean, read-out: HER-2 IC50): 180 nM | IC50 [2]: 600 nM | degradation of HER-2, pHER-2, pRaf in tumor [3, 11]: little or no degradation | degrading Akt, pAkt, Raf-1, pMEK, cdk6, pRb in tumor [3, 11]: still effective | levels of HER-2 and pHER-2 in tumor ([3]; oral 2×200 mg/kg/day for three days): decreased only partially | degradation of Akt, pAkt, Raf-1, pRaf, cdk6, pRb in tumor ([3]; oral 2×200 mg/kg/day for three days, 24 h after last dosing): to levels comparable to those obtained with 17-AAG | tumor growth inhibition ([4]; N87): Tumor growth inhibition was observed | mortality and weight loss ([4]; mice): neither mortality nor weight loss was observed | IV Parameters T1/2 ([5]; IV 10 mg/kg, H3PO4 salts): 4.2 h | IV Parameters VSS ([5]; IV 10 mg/kg, H3PO4 salts): 22 L/kg | IV Parameters Cl ([5]; IV 10 mg/kg, H3PO4 salts in phosphatidylcholine/water dispersion): 62 mL/min/kg | PO Parameters T1/2 ([5]; PO 100 mg/kg, H3PO4 salts): 1.5 h | PO Parameters Tmax ([5]; PO 100 mg/kg, H3PO4 salts): 30 min | PO Parameters Cmax ([5]; PO 100 mg/kg, H3PO4 salts, plasma): 4.7 µg/mL | PO Parameters AUC ([5]; PO 100 mg/kg, over 4 h, H3PO4 salts): 450 µg·min/mL

IC50 ([1]; Homo sapiens, MCF7, read-out: HER-2): 90 nM | Serum (PH 7.4) ([6]; solubility in serum, PH 7.4): 9 µg/mL | Gastric (PH 2.0) ([6]; solubility in simulated gastric fluid, PH 2.0): 220 µg/mL | Intestinal (PH 6.5) ([6]; solubility in simulated intestinal fluid, PH 6.5): 16 µg/mL | plasma concentrations (in words) [7]: significantly lower than 264 | AUC [8]: 1040 ng·h/mL
SMILES: CC(=O)OCCCn1c(Sc2nc3cccc(Cl)c3s2)nc2c(N)ncnc21 [Compound 242]

IC50 ([1]; Homo sapiens, MCF7, MCF-7 cells, 16 h, average of at least three observations, read-out: HER-2 IC50): 20000 nM | melting point: 138 to 139 °C
SMILES: CCCCn1c(Cc2cc(OC)ccc2Cl)nc2c(N)ncnc21 [Compound 311, 9-Butyl-8-(2-chloro-5-methoxy-benzyl)-9H-purin-6-ylamine]

IC50 [2]: 1200 nM
SMILES: C#CCCCn1c(Cc2cc(OC)c(OC)c(OC)c2Cl)nc2c(N)nc(F)nc21 [PU24FCl]
tumor growth ([9]; intraperitoneally 200 mg/kg): significantly repressed tumor growth | pharmacodynamic response in tumors ([9]; intraperitoneally 100-300 mg/kg, DMSO/EtOH/phosphate-buffered saline 1:1:1): down-regulation of HER-2 and Raf-1 | aqueous solubility (in words) [10]: too insoluble to be effectively formulated and delivered orally
